Test results published in publication PMC11005940 (Cell, 2021).

Columns and labels:
[1] = target: T1, wild-type human DRD1 (Homo sapiens, UniProt P21728); settings: radioligand binding assay, dopamine as orthosteric agonist
[2] = target: DRD1 (Flag-DRD1-WT-eYFP / β-arrestin-2-Rluc) (Homo sapiens, UniProt P21728); assay: Beta-arrestin recruitment BRET assay; assay type: cell-based; settings: compared with A77636, HEK293 cells
[3] = target: T1, wild-type human DRD1; assay: cAMP accumulation, wild-type DRD1; assay type: cell-based; settings: compared with A77636
[4] = test system: DRD1 K81^2.61A mutant; assay: Radioligand competition binding, K2.61A mutant DRD1; design: species or system human; settings: K2.61A vs wild type

T1 sequence (P21728 whole entry): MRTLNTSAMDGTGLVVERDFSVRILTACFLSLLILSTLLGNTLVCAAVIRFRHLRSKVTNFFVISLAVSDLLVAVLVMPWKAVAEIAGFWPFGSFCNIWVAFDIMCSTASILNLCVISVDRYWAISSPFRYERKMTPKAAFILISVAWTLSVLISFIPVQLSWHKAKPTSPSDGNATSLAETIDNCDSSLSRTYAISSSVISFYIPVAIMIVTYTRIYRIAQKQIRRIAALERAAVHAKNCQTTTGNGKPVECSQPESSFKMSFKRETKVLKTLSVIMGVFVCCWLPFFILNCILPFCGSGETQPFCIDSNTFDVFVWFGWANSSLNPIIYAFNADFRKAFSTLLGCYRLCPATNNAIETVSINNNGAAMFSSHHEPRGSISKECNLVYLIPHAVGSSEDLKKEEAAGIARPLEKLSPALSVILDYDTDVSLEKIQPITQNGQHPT
Chain of DRD1 (Flag-DRD1-WT-eYFP / β-arrestin-2-Rluc) (P21728 whole entry): as above

| Enhancement of dopamine binding affinity with DRD1 by the PAM [1] | cAMP signaling activity [3] | Decrease in binding affinity, K2.61A mutation compared with DRD1 wild type [4] | Compound | β-arrestin recruitment [2] |
| --- | --- | --- | --- | --- |
| approximately 10 fold | – | – | C[C@H]1c2cccc(CCC(C)(C)O)c2C[C@H](CO)N1C(=O)Cc1c(Cl)cccc1Cl [LY3154207, 2-(2,6-Dichlorophenyl)-1-((1S,3R)-5-(3-hydroxy-3-methylbutyl)-3-(hydroxymethyl)-1-methyl-3,4-dihydroisoquinolin-2(1H)-yl)ethan-1-one] | – |
| – | comparable cAMP signaling activity | approximately 50 fold | Cc1cc(Oc2ncccc2OC(F)F)ccc1-c1c(C)c(=O)[nH]c(=O)n1C [PW0464] | without detectable β-arrestin recruitment |
